The target in test [1] is T1, human SGLT1 (Homo sapiens, UniProt P13866).
T1 construct: expressed in transfected cells; host or cells: CHO-K1
T1 sequence (P13866 1-664): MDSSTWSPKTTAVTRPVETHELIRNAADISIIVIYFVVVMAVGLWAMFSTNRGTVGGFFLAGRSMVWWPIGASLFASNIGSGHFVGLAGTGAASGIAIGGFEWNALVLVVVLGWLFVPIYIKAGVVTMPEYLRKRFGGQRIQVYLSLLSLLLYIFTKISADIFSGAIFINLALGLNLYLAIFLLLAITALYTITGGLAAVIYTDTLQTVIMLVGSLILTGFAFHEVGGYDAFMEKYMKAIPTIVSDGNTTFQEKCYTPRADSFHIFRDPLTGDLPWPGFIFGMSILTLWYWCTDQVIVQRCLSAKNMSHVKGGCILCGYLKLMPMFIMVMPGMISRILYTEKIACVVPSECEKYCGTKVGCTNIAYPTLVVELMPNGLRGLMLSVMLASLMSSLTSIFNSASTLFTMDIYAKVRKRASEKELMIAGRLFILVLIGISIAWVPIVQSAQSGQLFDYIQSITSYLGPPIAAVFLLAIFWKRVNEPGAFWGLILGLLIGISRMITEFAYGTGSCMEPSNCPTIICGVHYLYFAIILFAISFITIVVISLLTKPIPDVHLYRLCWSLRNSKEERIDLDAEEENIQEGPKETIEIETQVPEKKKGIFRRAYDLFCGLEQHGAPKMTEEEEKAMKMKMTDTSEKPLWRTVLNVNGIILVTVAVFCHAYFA
Description: Inhibition test for sodium-dependent sugar uptake in CHO-K1 cells stably expressing human SGLT1. As to conditions: [14C]methyl α-D-glucopyranoside uptake, 37° C., 30 minutes, read-out: human SGLT1 IC50 (50% inhibition of sugar uptake). It is filed as cell-based. The method, then: (§1) A human SGLT1 sequence (NM_000343) was reverse-transcribed and amplified from human small intestine mRNA, and then introduced into pCMV-tag5A (Stratagene). Likewise, a human SGLT2 sequence (NM_003041) was prepared from human kidney mRNA in the same manner and introduced into pcDNA3.1+hygro (Invitrogen). The individual cloned sequences were confirmed to be identical with the sequences reported.
(§2) The human SGLT1 and human SGLT2 expression vectors were each transfected into CHO-K1 cells using lipofectamine 2000 (Invitrogen). The cells were cultured in the presence of 500 μg/mL geneticin (SGLT1) or hygromycin B (SGLT2) to select resistant strains and specific activity of sugar uptake in the system shown below was used as an indicator to obtain SGLT-expressing cells.
(§3) The cells stably expressing human SGLT1 or human SGLT2 were used for an inhibition test of sodium-dependent glucose uptake activity.
(§4) Pretreatment buffer (140 mM choline chloride, 2 mM KCl, 1 mM CaCl2, 1 mM MgCl2, 10 mM HEPES/5 mM Tris, pH 7.4) was added in a volume of 200 μL to human SGLT1-expressing cells and 2 mL to human SGLT2-expressing cells, followed by incubation for 20 minutes. The pretreatment buffer was removed and replaced with uptake buffer containing a test compound (1 mM methyl α-D-glucopyranoside (containing [^14C]methyl α-D-glucopyranoside), 145 mM NaCl, 2 mM KCl, 1 mM CaCl2, 1 mM MgCl2, 10 mM HEPES/5 mM Tris, pH 7.4) in a volume of 75 μL for SGLT1 and 200 μL for SGLT2. Uptake reaction was performed at 37° C. for 30 minutes (SGLT1) or 1 hour (SGLT2). After the reaction, the cells were washed twice with washing buffer (10 mM methyl α-D-glucopyranoside, 140 mM choline chloride, 2 mM KCl, 1 mM CaCl2, 1 mM MgCl2, 10 mM HEPES/5 mM Tris, pH 7.4) in a volume of 200 μL for SGLT1 and 2 mL for SGLT2, and then dissolved in a 0.2 M NaOH solution (75 μL for SGLT1 and 400 μL for SGLT2). A liquid scintillator (Perkin Elmer) was added and mixed well with each sample, followed by measurement of radioactivity using a microBETA for SGLT1 or a liquid scintillation counter for SGLT2 (Beckman Coulter). For the control group, uptake buffer containing no test compound was prepared. Moreover, another uptake buffer containing choline chloride instead of NaCl was also prepared for basal uptake.
(§5) For determination of IC50 values, test compounds prepared at 6 appropriate concentrations were used and their concentrations required for 50% inhibition of the amount of sugar uptake (IC50 values) were calculated relative to the amount of sugar uptake in the control group (100%).

Test [2] deals with T2, human SGLT2 (Homo sapiens, UniProt P31639).
T2 construct: expressed in transfected cells; host or cells: CHO-K1
T2 sequence (P31639 1-672): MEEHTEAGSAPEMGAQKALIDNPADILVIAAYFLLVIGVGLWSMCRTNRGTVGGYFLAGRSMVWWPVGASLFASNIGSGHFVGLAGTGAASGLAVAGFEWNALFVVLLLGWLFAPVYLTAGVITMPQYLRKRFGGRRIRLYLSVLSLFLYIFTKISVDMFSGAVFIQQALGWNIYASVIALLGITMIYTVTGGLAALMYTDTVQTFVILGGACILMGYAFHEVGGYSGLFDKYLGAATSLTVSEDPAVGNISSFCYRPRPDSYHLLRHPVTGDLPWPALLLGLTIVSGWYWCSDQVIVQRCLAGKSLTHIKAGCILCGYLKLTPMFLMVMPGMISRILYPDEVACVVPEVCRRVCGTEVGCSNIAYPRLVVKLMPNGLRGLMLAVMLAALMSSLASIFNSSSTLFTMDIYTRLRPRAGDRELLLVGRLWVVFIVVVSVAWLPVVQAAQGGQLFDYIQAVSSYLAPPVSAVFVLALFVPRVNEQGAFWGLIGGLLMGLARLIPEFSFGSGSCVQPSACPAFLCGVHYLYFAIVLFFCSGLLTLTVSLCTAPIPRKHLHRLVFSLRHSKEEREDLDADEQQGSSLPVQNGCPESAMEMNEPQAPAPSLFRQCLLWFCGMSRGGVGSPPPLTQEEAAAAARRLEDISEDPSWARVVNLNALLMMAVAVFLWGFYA
As to the kind of experiment: Inhibition test for sodium-dependent sugar uptake in CHO-K1 cells stably expressing human SGLT2. It is filed as cell-based. As to conditions: [14C]methyl α-D-glucopyranoside uptake, 37° C., 1 hour, read-out: human SGLT2 IC50 (50% inhibition of sugar uptake). The method, then: as §1, §2, §3, §4, §5

Test [3] relates to Streptozotocin-induced diabetic model rats. As to the kind of experiment: Oral glucose tolerance test in streptozotocin-induced diabetic model rats (hypoglycemic effect). It is filed as in vivo, rat. As to conditions: STZ diabetic SD/IGS rats; 1 mg/kg oral; glucose 2 g/kg oral; decrease in blood glucose ΔAUC 0-1 h relative to control group. The method, then: SD/IGS rats at 7 weeks of age (male, Charles River Laboratories Japan Inc.) were fasted for about 16 hours and then injected with 50 mg/kg streptozotocin (STZ) via the tail vein under ether anesthesia to prepare diabetic model rats. Similarly, another group of SD/IGS rats was injected with 1.25 mmol/L citric acid in physiological saline (1 mL/kg) via the tail vein under ether anesthesia to prepare normal control rats. At one week (8 weeks of age) after injection of STZ or 1.25 mmol/L citric acid in physiological saline, the rats were provided for an oral glucose tolerance test.
After the rats were fasted for about 16 hours, drug groups were each orally administered with a drug (1 mg/kg) suspended in a 0.5% aqueous carboxymethylcellulose (CMC) solution, while the control group was orally administered with a 0.5% aqueous CMC solution alone. At 5 minutes after drug administration, a glucose solution (2 g/kg) was orally administered and blood was collected at 5 points in total: before drug administration (0 hour) and 0.25, 0.5, 1 and 2 hours after oral administration.
Blood was collected from the orbital venous sinus of each rat under ether anesthesia using a heparin-coated blood collection tube, and centrifuged to separate plasma. Plasma glucose concentrations were quantified by measurement with a Glucose CII-Test Wako (Wako Pure Chemical Industries, Ltd., Japan). To determine the intensity of hypoglycemic effect, blood glucose levels measured between 0 and 1 hour in each drug group were analyzed by the trapezoidal method to calculate the area under the blood glucose-time curve (AUC), followed by basal subtraction to obtain a blood glucose increment (ΔAUC).

Structures are written as SMILES.

Take `Cc1cc(O)c([C@@H]2S[C@H](CO)[C@@H](O)[C@H](O)[C@H]2O)cc1Cc1ccc(CCCC(=O)NC(C)(C)C(N)=O)cc1` [Example 4, (1S)-1-[5-(4-{4-[(2-amino-1,1-dimethyl-2-oxoethyl)amino]-4-oxobutyl}benzyl)-2-hydroxy-4-methylphenyl]-1,5-anhydro-1-thio-D-glucitol]: the half-maximal inhibitory concentration (IC50) was 47 nM in test [1] and 49 nM in test [2]. For the same compound, in test [3], the “STZ rat-OGTT (2 g/Kg) % inhibition ΔAUC0-1 h (mgh/dL) @1 mg/Kg” value came to 66.5 % inhibition.
The matching figures for `Cc1cc(O)c([C@@H]2S[C@H](CO)[C@@H](O)[C@H](O)[C@H]2O)cc1Cc1ccc(CCCC(=O)NC(C)(C)CO)cc1` [Example 1, (1S)-1,5-anhydro-1-[2-hydroxy-5-(4-{4-[(2-hydroxy-1,1-dimethylethyl)amino]-4-oxobutyl}benzyl)-4-methylphenyl]-1-thio-D-glucitol]: 11 nM, 17 nM and 70.4 % inhibition.
Turning to `Cc1cc(O)c([C@@H]2S[C@H](CO)[C@@H](O)[C@H](O)[C@H]2O)cc1Cc1ccc(CCCNC(=O)NC(C)(C)CO)cc1` [Example 6, (1S)-1-{5-[4-(3-{[(2-hydroxy-1,1-dimethylethyl)aminocarbonyl]amino}propyl)benzyl]-2-hydroxy-4-methylphenyl}-1,5-anhydro-1-thio-D-glucitol], the IC50 in test [1] stood at 22 nM; in test [2] it was 32 nM. For the same compound, in test [3], the “STZ rat-OGTT (2 g/Kg) % inhibition ΔAUC0-1 h (mgh/dL) @1 mg/Kg” value stood at 69.2 % inhibition.
The matching figures for `Cc1cc(O)c([C@@H]2S[C@H](CO)[C@@H](O)[C@H](O)[C@H]2O)cc1Cc1ccc(CCCC(=O)NC(C)(CO)CO)cc1` [Example 2, (1S)-1,5-anhydro-1-{2-hydroxy-5-[4-(4-{[2-hydroxy-1-(hydroxymethyl)-1-methylethyl]amino}-4-oxobutyl)benzyl]-4-methylphenyl}-1-thio-D-glucitol]: 22 nM, 21 nM and 65.4 % inhibition.
The matching figures for `Cc1cc(O)c([C@@H]2S[C@H](CO)[C@@H](O)[C@H](O)[C@H]2O)cc1Cc1ccc(CCCC(=O)NC(CO)(CO)CO)cc1` [Example 3, (1S)-1,5-anhydro-1-{2-hydroxy-5-[4-(4-{[2-hydroxy-1,1-bis(hydroxymethyl)ethyl]amino}-4-oxobutyl)benzyl]-4-methylphenyl}-1-thio-D-glucitol]: 35 nM, 31 nM and 60.8 % inhibition.
Regarding `Cc1cc(O)c([C@@H]2S[C@H](CO)[C@@H](O)[C@H](O)[C@H]2O)cc1Cc1ccc(CCCCC(=O)NC(C)(C)CO)cc1` [Example 8, (1S)-1,5-anhydro-1-[2-hydroxy-5-(4-{5-[(2-hydroxy-1,1-dimethylethyl)amino]-5-oxopentyl}benzyl)-4-methylphenyl]-1-thio-D-glucitol], the IC50 in test [1] amounted to 79 nM; in test [2], 38 nM.
In the same order, the values of `Cc1cc(CCCC(=O)NC(C)(C)CO)ccc1Cc1cc([C@@H]2S[C@H](CO)[C@@H](O)[C@H](O)[C@H]2O)c(O)cc1C` [Example 5, (1S)-1,5-anhydro-1-[2-hydroxy-5-(4-{4-[(2-hydroxy-1,1-dimethylethyl)amino]-4-oxobutyl}-2-methylbenzyl)-4-methylphenyl]-1-thio-D-glucitol] are 20 nM and 99 nM.

The record behind these values is patent US8115017B2, “C-phenyl 1-thioglucitol compound” (Taisho Pharmaceutical Co., Ltd, priority 2006, dated 2012).
